According to US8969516B2, “Method of hydrolysis of peptide bond” (priority 2006, dated 2015):

Experiment: MALDI-TOF screening of Ni^2+ dependent hydrolysis in a combinatorial peptide library
Format: physicochemical
Conditions: CH3CO-Gly-Ala-Ser-X-His-Z-Lys-Phe-Leu-NH2 library, Ni^2+ 2 mM, pH 8.2, 10 mM Tris, score=24/tm
Outline: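 Peptide sublibraries CH3CO-Gly-Ala-Ser/Thr-X-His-Z-Lys-Phe-Leu-NH2 (1 mM total) incubated with 2 mM Ni^2+ in 10 mM Tris pH 8.2 at 37 °C and 45 °C. Hydrolysis products, plus loss of substrate signals, detected by MALDI-TOF at 2, 4, 6 and 8 h; residues X and Z scored and ranked.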

Substance	hydrolysis score from MALDI-TOF screening (37° C.)	hydrolysis score from MALDI-TOF screening (45° C.)
Ac-GASMHEKFL-NH2 [SMHE]	0 (a score of 0 if no trace of the product of hydrolysis was seen after 8 hours of incubation)	0 (a score of 0 if no trace of the product of hydrolysis was seen after 8 hours of incubation)
Ac-GASMHFKFL-NH2 [SMHF]	3 (a score of 3 for detection at 8 hours)	4 (a score of 4 for detection at 6 hours)
Ac-GASMHGKFL-NH2 [SMHG]	0 (a score of 0 if no trace of the product of hydrolysis was seen after 8 hours of incubation)	0 (a score of 0 if no trace of the product of hydrolysis was seen after 8 hours of incubation)
Ac-GASMHHKFL-NH2 [SMHH]	0 (a score of 0 if no trace of the product of hydrolysis was seen after 8 hours of incubation)	3 (a score of 3 for detection at 8 hours)
Ac-GASMHIKFL-NH2 [SMHI]	4 (a score of 4 for detection at 6 hours)	12 (a score of 12, if it was seen to be partially hydrolysed at 2 hours)
Ac-GASMHKKFL-NH2 [SMHK]	3 (a score of 3 for detection at 8 hours)	6 (a score of 6 for detection at 4 hours)
Ac-GASMHLKFL-NH2 [SMHL]	4 (a score of 4 for detection at 6 hours)	12 (a score of 12, if it was seen to be partially hydrolysed at 2 hours)
Ac-GASMHMKFL-NH2 [SMHM]	3 (a score of 3 for detection at 8 hours)	3 (a score of 3 for detection at 8 hours)
Ac-GASMHNKFL-NH2 [SMHN]	0 (a score of 0 if no trace of the product of hydrolysis was seen after 8 hours of incubation)	0 (a score of 0 if no trace of the product of hydrolysis was seen after 8 hours of incubation)
Ac-GASMHPKFL-NH2 [SMHP]	0 (a score of 0 if no trace of the product of hydrolysis was seen after 8 hours of incubation)	0 (a score of 0 if no trace of the product of hydrolysis was seen after 8 hours of incubation)
Ac-GASMHQKFL-NH2 [SMHQ]	0 (a score of 0 if no trace of the product of hydrolysis was seen after 8 hours of incubation)	0 (a score of 0 if no trace of the product of hydrolysis was seen after 8 hours of incubation)
Ac-GASMHRKFL-NH2 [SMHR]	4 (a score of 4 for detection at 6 hours)	6 (a score of 6 for detection at 4 hours)
Ac-GASMHSKFL-NH2 [SMHS]	0 (a score of 0 if no trace of the product of hydrolysis was seen after 8 hours of incubation)	3 (a score of 3 for detection at 8 hours)
Ac-GASMHTKFL-NH2 [SMHT]	0 (a score of 0 if no trace of the product of hydrolysis was seen after 8 hours of incubation)	0 (a score of 0 if no trace of the product of hydrolysis was seen after 8 hours of incubation)
Ac-GASMHVKFL-NH2 [SMHV]	3 (a score of 3 for detection at 8 hours)	6 (a score of 6 for detection at 4 hours)
Ac-GASMHWKFL-NH2 [SMHW]	4 (a score of 4 for detection at 6 hours)	6 (a score of 6 for detection at 4 hours)
Ac-GASMHYKFL-NH2 [SMHY]	3 (a score of 3 for detection at 8 hours)	4 (a score of 4 for detection at 6 hours)
Ac-GASNHAKFL-NH2 [SNHA]	0 (a score of 0 if no trace of the product of hydrolysis was seen after 8 hours of incubation)	0 (a score of 0 if no trace of the product of hydrolysis was seen after 8 hours of incubation)
Ac-GASNHDKFL-NH2 [SNHD]	0 (a score of 0 if no trace of the product of hydrolysis was seen after 8 hours of incubation)	0 (a score of 0 if no trace of the product of hydrolysis was seen after 8 hours of incubation)
Ac-GASNHEKFL-NH2 [SNHE]	0 (a score of 0 if no trace of the product of hydrolysis was seen after 8 hours of incubation)	0 (a score of 0 if no trace of the product of hydrolysis was seen after 8 hours of incubation)
Ac-GASNHFKFL-NH2 [SNHF]	3 (a score of 3 for detection at 8 hours)	3 (a score of 3 for detection at 8 hours)

Substance	hydrolysis score from MALDI-TOF screening (37° C.)	hydrolysis score from MALDI-TOF screening (45° C.)
Ac-GASNHGKFL-NH2 [SNHG]	0 (a score of 0 if no trace of the product of hydrolysis was seen after 8 hours of incubation)	0 (a score of 0 if no trace of the product of hydrolysis was seen after 8 hours of incubation)
Ac-GASNHHKFL-NH2 [SNHH]	0 (a score of 0 if no trace of the product of hydrolysis was seen after 8 hours of incubation)	3 (a score of 3 for detection at 8 hours)
Ac-GASNHIKFL-NH2 [SNHI]	4 (a score of 4 for detection at 6 hours)	4 (a score of 4 for detection at 6 hours)
Ac-GASNHKKFL-NH2 [SNHK]	4 (a score of 4 for detection at 6 hours)	4 (a score of 4 for detection at 6 hours)
Ac-GASNHLKFL-NH2 [SNHL]	4 (a score of 4 for detection at 6 hours)	4 (a score of 4 for detection at 6 hours)
Ac-GASNHMKFL-NH2 [SNHM]	0 (a score of 0 if no trace of the product of hydrolysis was seen after 8 hours of incubation)	0 (a score of 0 if no trace of the product of hydrolysis was seen after 8 hours of incubation)
Ac-GASNHNKFL-NH2 [SNHN]	0 (a score of 0 if no trace of the product of hydrolysis was seen after 8 hours of incubation)	0 (a score of 0 if no trace of the product of hydrolysis was seen after 8 hours of incubation)
Ac-GASNHPKFL-NH2 [SNHP]	0 (a score of 0 if no trace of the product of hydrolysis was seen after 8 hours of incubation)	0 (a score of 0 if no trace of the product of hydrolysis was seen after 8 hours of incubation)
Ac-GASNHQKFL-NH2 [SNHQ]	0 (a score of 0 if no trace of the product of hydrolysis was seen after 8 hours of incubation)	0 (a score of 0 if no trace of the product of hydrolysis was seen after 8 hours of incubation)
Ac-GASNHRKFL-NH2 [SNHR]	6 (a score of 6 for detection at 4 hours)	6 (a score of 6 for detection at 4 hours)
Ac-GASNHSKFL-NH2 [SNHS]	0 (a score of 0 if no trace of the product of hydrolysis was seen after 8 hours of incubation)	0 (a score of 0 if no trace of the product of hydrolysis was seen after 8 hours of incubation)
Ac-GASNHTKFL-NH2 [SNHT]	0 (a score of 0 if no trace of the product of hydrolysis was seen after 8 hours of incubation)	0 (a score of 0 if no trace of the product of hydrolysis was seen after 8 hours of incubation)
Ac-GASNHVKFL-NH2 [SNHV]	3 (a score of 3 for detection at 8 hours)	3 (a score of 3 for detection at 8 hours)
Ac-GASNHWKFL-NH2 [SNHW]	6 (a score of 6 for detection at 4 hours)	6 (a score of 6 for detection at 4 hours)
Ac-GASNHYKFL-NH2 [SNHY]	3 (a score of 3 for detection at 8 hours)	3 (a score of 3 for detection at 8 hours)
Ac-GASPHAKFL-NH2 [SPHA]	0 (a score of 0 if no trace of the product of hydrolysis was seen after 8 hours of incubation)	0 (a score of 0 if no trace of the product of hydrolysis was seen after 8 hours of incubation)
Ac-GASPHDKFL-NH2 [SPHD]	0 (a score of 0 if no trace of the product of hydrolysis was seen after 8 hours of incubation)	0 (a score of 0 if no trace of the product of hydrolysis was seen after 8 hours of incubation)
Ac-GASPHEKFL-NH2 [SPHE]	0 (a score of 0 if no trace of the product of hydrolysis was seen after 8 hours of incubation)	0 (a score of 0 if no trace of the product of hydrolysis was seen after 8 hours of incubation)
Ac-GASPHFKFL-NH2 [SPHF]	0 (a score of 0 if no trace of the product of hydrolysis was seen after 8 hours of incubation)	0 (a score of 0 if no trace of the product of hydrolysis was seen after 8 hours of incubation)
Ac-GASPHGKFL-NH2 [SPHG]	0 (a score of 0 if no trace of the product of hydrolysis was seen after 8 hours of incubation)	0 (a score of 0 if no trace of the product of hydrolysis was seen after 8 hours of incubation)
Ac-GASPHHKFL-NH2 [SPHH]	0 (a score of 0 if no trace of the product of hydrolysis was seen after 8 hours of incubation)	0 (a score of 0 if no trace of the product of hydrolysis was seen after 8 hours of incubation)
